Assay results as given in patent EP0900207B1, “PYRAZINONE THROMBIN INHIBITORS” (MERCK & CO., INC., priority 1996, dated 1997).

Test system: Male Sprague-Dawley rats
Experiment: Rat ferric chloride assay of thrombotic occlusion of the carotid artery
Assay type: in vivo
Settings: continuous intravenous infusion 10 µg/kg/min
Procedure: Studies of 3-(2-Phenylethylamino)-6-methyl-1-(2-amino-6-methyl-5-methylenecarboxamidomethylpyridinyl)-2-pyridinone using the following rat ferric chloride assay substantially as described in Thrombosis Research, No. 60, page 269(1990) by Kurtz et al were used to determine in vivo activity of the thrombin inhibitors of the invention. Male Sprague-Dawley rats (body weights 200-350 grams) were anesthetized with dial-urethane solution (0.1 ml/100 gm body weight i.p.), and a lateral tail vein was cannulated with a 23 gauge needle connected to a 12 inch length of PE50 tubing. The tubing was attached to a 3-way valve by a tubing adapter. Saline (control) or test compound, as appropriate, was administered via the tail vein catheter. A tracheostomy was performed with a 0.75 inch length of PE205 tubing. The right carotid artery is exposed and a 1.3 mm diameter Doppler flow probe was placed on the vessel. Body temperature was maintained at 37°C using a heat lamp.
6 rats were randomized to continuous intravenous infusions of saline or test compound administered via the tail vein. Test compound was administered at a rate of 10 µg/kg/min. Treatment infusions were initiated 60 min before the placement of a 3 mm square piece of Whatman No. 1 filter paper saturated with 35% FeCl3 onto the exposed carotid artery distal to the flow probe. […]

3-(2-Phenylethylamino)-6-methyl-1-(2-amino-6-methyl-5-methylenecarboxamidomethylpyridinyl)-2-pyridinone [Example LXXXII]
rats showing evidence of thrombotic occlusion (observed up to 90 minutes after application of FeCl3): None
efficacy against thrombotic occlusion (started 60 min before 35% FeCl3 on carotid artery): fully efficacious
